Test results reported in article PMC11129975, “A first-in-human phase I study of TAS-117, an allosteric AKT inhibitor, in patients with advanced solid tumors” (Cancer Chemotherapy and Pharmacology, 2024).

Experiment: Phase I safety: adverse events, adverse drug reactions, DLTs in patients with advanced solid tumors
Format: in vivo, human
Excerpt: This was a phase I, open-label, non-randomized, dose-escalating first-in-human study to evaluate the safety, pharmacokinetics, antitumor activity, pharmacodynamics, and pharmacogenomics of TAS-117 in patients with advanced solid tumors. The study had three phases: a dose escalation phase (DEP), a regimen modification phase (RMP), and a safety assessment phase (SAP). The treatment cycle on each regimen lasted 21 days. The DEP used an accelerated titration and 3 + 3 design. TAS-117 was administered orally once daily (QD) on an empty stomach (1 h before or 2 h after a meal). Dosing was determined based on a 4-week repeated oral-dose toxicology study in monkeys (data on file, Taiho Pharmaceutical Co., Ltd.); the highest non-severely toxic dose was 1.2 mg/kg/day, which was converted to 3.84 mg/body/day, or 2.4 mg/m^2. Therefore, the starting dose was determined to be ≤ 2.4 mg/m^2. At dose level 1, TAS-117 was administered at 2 mg QD (Day − 2), and the dose was increased to 4 mg QD after 2 days (Day 1). The RMP was conducted according to a 3 + 3 design. During this phase, the dose regimen was changed from QD administration to intermittent dosing of daily TAS-117 with 4 days on/3 days off. TAS-117 was administered on an empty stomach. Dose-limiting toxicities (DLTs) were evaluated in Cycle 1 of the DEP and RMP. […] The RD and regimen for the SAP were determined based on the safety, pharmacokinetics, pharmacodynamics, and antitumor activity profile determined in the DEP and RMP. During the SAP, the safety and preliminary efficacy profiles of TAS-117 were assessed at the RD and recommended regimen. Three cohorts were included in this assessment. Cohort 1 included patients with endometrial cancer with a PIK3CA mutation; cohort 2 included patients with endometrial cancer with an AKT1 mutation, AKT1 amplification, or AKT2 amplification; and cohort 3 included patients with ovarian clear cell carcinoma.
The primary endpoints were the proportion of patients who experienced DLTs in Cycle 1 of the DEP and RMP and the incidence of adverse events (AEs) and adverse drug reactions (ADRs) in the SAP. AEs and ADRs were coded using the Medical Dictionary for Regulatory Activities (MedDRA; version 24.1) and graded according to the National Cancer Institute Common Terminology Criteria for Adverse Events (CTCAE; version 4.03). Secondary endpoints were pharmacokinetic findings, changes in the ratio of phosphorylated PRAS40 (pPRAS40)/total PRAS40 from baseline, efficacy, and pharmacogenomics findings.

C[C@]1(O)C[C@@](N)(c2ccc(-c3nc4n(c3-c3ccccc3)COc3ccncc3-4)cc2)C1 [TAS-117]
Adverse drug reactions: Blood AP increased (Total N = 65, All grade): 7 (10.8) n (%) | Adverse drug reactions: Decreased appetite (Total N = 65, All grade): 10 (15.4) n (%) | Adverse drug reactions: Diarrhea (Total N = 65, All grade): 8 (12.3) n (%) | Adverse drug reactions: Dry skin (Total N = 65, All grade): 8 (12.3) n (%) | Adverse drug reactions: GGT increased (Total N = 65, All grade): 8 (12.3) n (%) | Adverse drug reactions: GI disorders (Total N = 65, All grade): 41 (63.1) n (%) | Adverse drug reactions: General disorders and administration site conditions (Total N = 65, All grade): 27 (41.5) n (%) | Adverse drug reactions: Hyperglycemia (Total N = 65, All grade): 30 (46.2) n (%) | Adverse drug reactions: Investigations (Total N = 65, All grade): 39 (60.0) n (%) | Adverse drug reactions: Metabolism and nutrition disorders (Total N = 65, All grade): 36 (55.4) n (%) | Adverse drug reactions: Nausea (Total N = 65, All grade): 16 (24.6) n (%) | Adverse drug reactions: Neutrophil count decreased (Total N = 65, All grade): 21 (32.3) n (%) | Adverse drug reactions: Pruritus (Total N = 65, All grade): 13 (20.0) n (%) | Adverse drug reactions: Pyrexia (Total N = 65, All grade): 17 (26.2) n (%) | Adverse drug reactions: Rash maculo-papular (Total N = 65, All grade): 58 (89.2) n (%) | Adverse drug reactions: Skin and SC tissue disorders (Total N = 65, All grade): 61 (93.8) n (%) | Adverse drug reactions: Stomatitis (Total N = 65, All grade): 37 (56.9) n (%) | Adverse drug reactions: Vomiting (Total N = 65, All grade): 7 (10.8) n (%) | Adverse drug reactions: WBC count decreased (Total N = 65, All grade): 25 (38.5) n (%) | Adverse events: ALT increased (Total N = 65, All grade): 12 (18.5) n (%) | Adverse events: AST increased (Total N = 65, All grade): 13 (20.0) n (%) | Adverse events: Any events (Total N = 65, All grade): 64 (98.5) n (%) | Adverse events: Blood AP increased (Total N = 65, All grade): 8 (12.3) n (%) | Adverse events: Decreased appetite (Total N = 65, All grade): 19 (29.2) n (%) | Adverse events: Diarrhea (Total N = 65, All grade): 15 (23.1) n (%) | Adverse events: Dry skin (Total N = 65, All grade): 11 (16.9) n (%) | Adverse events: GGT increased (Total N = 65, All grade): 11 (16.9) n (%) | Adverse events: GI disorders (Total N = 65, All grade): 51 (78.5) n (%) | Adverse events: General disorders and administration site conditions (Total N = 65, All grade): 39 (60.0) n (%) | Adverse events: Hyperglycemia (Total N = 65, All grade): 30 (46.2) n (%) | Adverse events: Investigations (Total N = 65, All grade): 42 (64.6) n (%) | Adverse events: Metabolism and nutrition disorders (Total N = 65, All grade): 44 (67.7) n (%) | Adverse events: Nausea (Total N = 65, All grade): 21 (32.3) n (%) | Adverse events: Neutrophil count decreased (Total N = 65, All grade): 21 (32.3) n (%) | Adverse events: Pruritus (Total N = 65, All grade): 13 (20.0) n (%) | Adverse events: Pyrexia (Total N = 65, All grade): 24 (36.9) n (%) | Adverse events: Rash maculo-papular (Total N = 65, All grade): 58 (89.2) n (%) | Adverse events: Skin and SC tissue disorders (Total N = 65, All grade): 61 (93.8) n (%) | Adverse events: Stomatitis (Total N = 65, All grade): 38 (58.5) n (%) | Adverse events: Vomiting (Total N = 65, All grade): 13 (20.0) n (%) | Adverse events: WBC count decreased (Total N = 65, All grade): 25 (38.5) n (%) | Adverse drug reactions: ALT increased (Total N = 65, ≥ Grade 3): 2 (3.1) n (%) | Adverse drug reactions: AST increased (Total N = 65, ≥ Grade 3): 0 (0.0) n (%) | Adverse drug reactions: Any events (Total N = 65, ≥ Grade 3): 39 (60.0) n (%) | Adverse drug reactions: Blood AP increased (Total N = 65, ≥ Grade 3): 0 (0.0) n (%) | Adverse drug reactions: Decreased appetite (Total N = 65, ≥ Grade 3): 0 (0.0) n (%) | Adverse drug reactions: Diarrhea (Total N = 65, ≥ Grade 3): 0 (0.0) n (%) | Adverse drug reactions: Dry skin (Total N = 65, ≥ Grade 3): 0 (0.0) n (%) | Adverse drug reactions: GGT increased (Total N = 65, ≥ Grade 3): 5 (7.7) n (%) | Adverse drug reactions: GI disorders (Total N = 65, ≥ Grade 3): 1 (1.5) n (%) | Adverse drug reactions: General disorders and administration site conditions (Total N = 65, ≥ Grade 3): 0 (0.0) n (%) | Adverse drug reactions: Hyperglycemia (Total N = 65, ≥ Grade 3): 11 (16.9) n (%) | Adverse drug reactions: Investigations (Total N = 65, ≥ Grade 3): 20 (30.8) n (%) | Adverse drug reactions: Metabolism and nutrition disorders (Total N = 65, ≥ Grade 3): 11 (16.9) n (%) | Adverse drug reactions: Nausea (Total N = 65, ≥ Grade 3): 0 (0.0) n (%) | Adverse drug reactions: Neutrophil count decreased (Total N = 65, ≥ Grade 3): 9 (13.8) n (%) | Adverse drug reactions: Pruritus (Total N = 65, ≥ Grade 3): 0 (0.0) n (%) | Adverse drug reactions: Pyrexia (Total N = 65, ≥ Grade 3): 0 (0.0) n (%) | Adverse drug reactions: Rash maculo-papular (Total N = 65, ≥ Grade 3): 23 (35.4) n (%) | Adverse drug reactions: Skin and SC tissue disorders (Total N = 65, ≥ Grade 3): 24 (36.9) n (%) | Adverse drug reactions: Stomatitis (Total N = 65, ≥ Grade 3): 1 (1.5) n (%) | Adverse drug reactions: Vomiting (Total N = 65, ≥ Grade 3): 0 (0.0) n (%) | Adverse drug reactions: WBC count decreased (Total N = 65, ≥ Grade 3): 8 (12.3) n (%) | Adverse events: ALT increased (Total N = 65, ≥ Grade 3): 2 (3.1) n (%) | Adverse events: AST increased (Total N = 65, ≥ Grade 3): 1 (1.5) n (%) | Adverse events: Any events (Total N = 65, ≥ Grade 3): 44 (67.7) n (%) | Adverse events: Blood AP increased (Total N = 65, ≥ Grade 3): 1 (1.5) n (%) | Adverse events: Decreased appetite (Total N = 65, ≥ Grade 3): 1 (1.5) n (%) | Adverse events: Diarrhea (Total N = 65, ≥ Grade 3): 1 (1.5) n (%) | Adverse events: Dry skin (Total N = 65, ≥ Grade 3): 0 (0.0) n (%) | Adverse events: GGT increased (Total N = 65, ≥ Grade 3): 8 (12.3) n (%) | Adverse events: GI disorders (Total N = 65, ≥ Grade 3): 4 (6.2) n (%) | Adverse events: General disorders and administration site conditions (Total N = 65, ≥ Grade 3): 0 (0.0) n (%) | Adverse events: Hyperglycemia (Total N = 65, ≥ Grade 3): 11 (16.9) n (%) | Adverse events: Investigations (Total N = 65, ≥ Grade 3): 24 (36.9) n (%) | Adverse events: Metabolism and nutrition disorders (Total N = 65, ≥ Grade 3): 13 (20.0) n (%) | Adverse events: Nausea (Total N = 65, ≥ Grade 3): 0 (0.0) n (%) | Adverse events: Neutrophil count decreased (Total N = 65, ≥ Grade 3): 9 (13.8) n (%) | Adverse events: Pruritus (Total N = 65, ≥ Grade 3): 0 (0.0) n (%) | Adverse events: Pyrexia (Total N = 65, ≥ Grade 3): 0 (0.0) n (%) | Adverse events: Rash maculo-papular (Total N = 65, ≥ Grade 3): 23 (35.4) n (%) | Adverse events: Skin and SC tissue disorders (Total N = 65, ≥ Grade 3): 24 (36.9) n (%) | Adverse events: Stomatitis (Total N = 65, ≥ Grade 3): 1 (1.5) n (%) | Adverse events: Vomiting (Total N = 65, ≥ Grade 3): 0 (0.0) n (%) | Adverse events: WBC count decreased (Total N = 65, ≥ Grade 3): 8 (12.3) n (%) | Patients who developed AEs related to skin disorders (all treated patients): 93.8% | Patients with maculopapular rash (all treated patients): 89.2% | Patients who discontinued because of AEs (dose level 4 (24 mg intermittent administration)): four patients | Recommended dose (RD) (intermittent dosing (4 days on/3 days off)): 24 mg | Tolerability (once daily up to 16 mg/day and intermittent dosing of 24 mg/day): well tolerated | Maculopapular rash grade ≥ 3 (printed as % of patients with this AE): 35.4%
